Results from the supplement of paper PMC11208160.

Experiment: recombinant barcode read abundance after kanamycin selection (control-corrected) (log10(CPM+1)); higher = more efficient recombination; sequences stand for … in AGTGCAGAGAAAATCGGCCAGTTTTCTCTGCCTGCAGTCCGCATGCCGT…ATTTATGCAGCGGACTGCCTTTCTCCCAAAGTGATAAACCGGACAGTATCATGGACCGGTTTTCCCGGTAATCCGTATTTGCAAGGTTGGTTTCACT; site = the 11-nt target
Outline: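 This pooled E. coli screen matched targets with IS621 bridge RNA target-binding loops. Plating was done in duplicate on chloramphenicol/ampicillin LB agar as a control and on chloramphenicol/ampicillin/kanamycin plus 0.1 mM IPTG. Recombination efficiency reflects barcode counts at recombinant junctions as counts per million, averaged and control-corrected. The figures are log10(CPM+1).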

“CATATTACTTGGGTTCTAACCTGTTGCCTGT [CATATTACTAG_LTGcore_CT_RTGcore_AC] (site CATATTACTAG) (LTG core: CT, RTG core: AC)” and “CATATTAGCTGGGTTCTAACCTGTTGCCTGC [CATATTACTAG_LTGcore_GC_RTGcore_GC] (site CATATTACTAG) (LTG core: GC, RTG core: GC)” are within 0.2 log units of each other in “recombinant barcode read abundance (log10)” value: 0.00796 for the first, 0 for the second.

“CATATTAGTTGGGTTCTAACCTGTTGCCTAC [CATATTACTAG_LTGcore_GT_RTGcore_GT] (site CATATTACTAG) (LTG core: GT, RTG core: GT)” and “CATATTAGTTGGGTTCTAACCTGTTGCCTAG [CATATTACTAG_LTGcore_GT_RTGcore_CT] (site CATATTACTAG) (LTG core: GT, RTG core: CT)” are within 0.2 log units of each other in “recombinant barcode read abundance (log10)” value: 0.1 for the first, 0.209 for the second.

“CATATTATCTGGGTTCTAACCTGTTGCCTGA [CATATTACTAG_LTGcore_TC_RTGcore_TC] (site CATATTACTAG) (LTG core: TC, RTG core: TC)” and “CATATTATGTGGGTTCTAACCTGTTGCCTCA [CATATTACTAG_LTGcore_TG_RTGcore_TG] (site CATATTACTAG) (LTG core: TG, RTG core: TG)” are within 0.2 log units of each other in “recombinant barcode read abundance (log10)” value: 0.0468 for the first, 0.0228 for the second.

First: CGAGCCCCATGGGTTCTAACCTGTTGCTGAG [CGAGCCCCTCA_LTGcore_CA_RTGcore_CT] (site CGAGCCCCTCA) (LTG core: CA, RTG core: CT)
Second: CGAGCCCCATGGGTTCTAACCTGTTGCTGTG [CGAGCCCCTCA_LTGcore_CA_RTGcore_CA] (site CGAGCCCCTCA) (LTG core: CA, RTG core: CA)
The “recombinant barcode read abundance (log10)” value of the first is higher: 1.27 for the first, 0.111 for the second.

“CGAGCCCCGTGGGTTCTAACCTGTTGCTGCG [CGAGCCCCTCA_LTGcore_CG_RTGcore_CG] (site CGAGCCCCTCA) (LTG core: CG, RTG core: CG)” and “CGAGCCCCTTGGGTTCTAACCTGTTGCTGAA [CGAGCCCCTCA_LTGcore_CT_RTGcore_TT] (site CGAGCCCCTCA) (LTG core: CT, RTG core: TT)” are within 0.2 log units of each other in “recombinant barcode read abundance (log10)” value: 0.493 for the first, 0.691 for the second.

“CGAGCCCCTTGGGTTCTAACCTGTTGCTGCC [CGAGCCCCTCA_LTGcore_CT_RTGcore_GG] (site CGAGCCCCTCA) (LTG core: CT, RTG core: GG)” and “CGAGCCCCTTGGGTTCTAACCTGTTGCTGCG [CGAGCCCCTCA_LTGcore_CT_RTGcore_CG] (site CGAGCCCCTCA) (LTG core: CT, RTG core: CG)” are within 0.2 log units of each other in “recombinant barcode read abundance (log10)” value: 0.235 for the first, 0.339 for the second.

Compared with “CGAGCCCCTTGGGTTCTAACCTGTTGCTGGA [CGAGCCCCTCA_LTGcore_CT_RTGcore_TC] (site CGAGCCCCTCA) (LTG core: CT, RTG core: TC)”, “CGAGCCCCTTGGGTTCTAACCTGTTGCTGTG [CGAGCCCCTCA_LTGcore_CT_RTGcore_CA] (site CGAGCCCCTCA) (LTG core: CT, RTG core: CA)” is lower in “recombinant barcode read abundance (log10)” value: 0.994 for the first, 0.176 for the second.

“CGAGCCCGGTGGGTTCTAACCTGTTGCTGAG [CGAGCCCCTCA_LTGcore_GG_RTGcore_CT] (site CGAGCCCCTCA) (LTG core: GG, RTG core: CT)” and “CGAGCCCGTTGGGTTCTAACCTGTTGCTGAC [CGAGCCCCTCA_LTGcore_GT_RTGcore_GT] (site CGAGCCCCTCA) (LTG core: GT, RTG core: GT)” are within 0.2 log units of each other in “recombinant barcode read abundance (log10)” value: 0.223 for the first, 0.156 for the second.

“CGAGCCCTATGGGTTCTAACCTGTTGCTGTA [CGAGCCCCTCA_LTGcore_TA_RTGcore_TA] (site CGAGCCCCTCA) (LTG core: TA, RTG core: TA)” and “CGAGCCCTCTGGGTTCTAACCTGTTGCTGAG [CGAGCCCCTCA_LTGcore_TC_RTGcore_CT] (site CGAGCCCCTCA) (LTG core: TC, RTG core: CT)” are within 0.2 log units of each other in “recombinant barcode read abundance (log10)” value: 0.083 for the first, 0.0668 for the second.

In the case of “CGAGCCCTGTGGGTTCTAACCTGTTGCTGAG [CGAGCCCCTCA_LTGcore_TG_RTGcore_CT] (site CGAGCCCCTCA) (LTG core: TG, RTG core: CT)”, the “recombinant barcode read abundance (log10)” value is reported as 0.134.
